The values below come from patent US11866450B2, “Modulators of Cystic Fibrosis Transmembrane Conductance regulator, pharmaceutical compositions, methods of treatment, and process for making the modulators” (priority 2018, dated 2024).

For data set [1] the following is noted: snar bond, DMSO.
The target of data set [2] is CFTR-mediated chloride transport (Homo sapiens, UniProt P13569). It is filed as cell-based. The note with it: enteroid cells incubated with test compound 18-24 hours, acute 10 μM forskolin and 300 nM Compound III; for Max. Activity: % of chloride transport with 3 μM Compound A, 3 μM Compound II and 300 nM acute Compound III triple combination control. In outline:
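Membrane-potential fluorescence AUC over 15 min quantified CFTR chloride transport after acute forskolin (10 μM), IBMX (100 μM) and Compound III (300 nM) in chloride-free buffer. Human enteroid cells were pretreated with compound for 18–24 h; % Activity is relative to 3 μM Compound A + 3 μM Compound II + 300 nM Compound III.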

Values joined by “and” are separate entries in the source; they are usually repeats but may differ in a detail not shown here. Identical values can stand only once. Like-named read-outs stand apart in the source and are kept apart here.

CFTR-mediated chloride transport, sequence (P13569 whole entry, looked up): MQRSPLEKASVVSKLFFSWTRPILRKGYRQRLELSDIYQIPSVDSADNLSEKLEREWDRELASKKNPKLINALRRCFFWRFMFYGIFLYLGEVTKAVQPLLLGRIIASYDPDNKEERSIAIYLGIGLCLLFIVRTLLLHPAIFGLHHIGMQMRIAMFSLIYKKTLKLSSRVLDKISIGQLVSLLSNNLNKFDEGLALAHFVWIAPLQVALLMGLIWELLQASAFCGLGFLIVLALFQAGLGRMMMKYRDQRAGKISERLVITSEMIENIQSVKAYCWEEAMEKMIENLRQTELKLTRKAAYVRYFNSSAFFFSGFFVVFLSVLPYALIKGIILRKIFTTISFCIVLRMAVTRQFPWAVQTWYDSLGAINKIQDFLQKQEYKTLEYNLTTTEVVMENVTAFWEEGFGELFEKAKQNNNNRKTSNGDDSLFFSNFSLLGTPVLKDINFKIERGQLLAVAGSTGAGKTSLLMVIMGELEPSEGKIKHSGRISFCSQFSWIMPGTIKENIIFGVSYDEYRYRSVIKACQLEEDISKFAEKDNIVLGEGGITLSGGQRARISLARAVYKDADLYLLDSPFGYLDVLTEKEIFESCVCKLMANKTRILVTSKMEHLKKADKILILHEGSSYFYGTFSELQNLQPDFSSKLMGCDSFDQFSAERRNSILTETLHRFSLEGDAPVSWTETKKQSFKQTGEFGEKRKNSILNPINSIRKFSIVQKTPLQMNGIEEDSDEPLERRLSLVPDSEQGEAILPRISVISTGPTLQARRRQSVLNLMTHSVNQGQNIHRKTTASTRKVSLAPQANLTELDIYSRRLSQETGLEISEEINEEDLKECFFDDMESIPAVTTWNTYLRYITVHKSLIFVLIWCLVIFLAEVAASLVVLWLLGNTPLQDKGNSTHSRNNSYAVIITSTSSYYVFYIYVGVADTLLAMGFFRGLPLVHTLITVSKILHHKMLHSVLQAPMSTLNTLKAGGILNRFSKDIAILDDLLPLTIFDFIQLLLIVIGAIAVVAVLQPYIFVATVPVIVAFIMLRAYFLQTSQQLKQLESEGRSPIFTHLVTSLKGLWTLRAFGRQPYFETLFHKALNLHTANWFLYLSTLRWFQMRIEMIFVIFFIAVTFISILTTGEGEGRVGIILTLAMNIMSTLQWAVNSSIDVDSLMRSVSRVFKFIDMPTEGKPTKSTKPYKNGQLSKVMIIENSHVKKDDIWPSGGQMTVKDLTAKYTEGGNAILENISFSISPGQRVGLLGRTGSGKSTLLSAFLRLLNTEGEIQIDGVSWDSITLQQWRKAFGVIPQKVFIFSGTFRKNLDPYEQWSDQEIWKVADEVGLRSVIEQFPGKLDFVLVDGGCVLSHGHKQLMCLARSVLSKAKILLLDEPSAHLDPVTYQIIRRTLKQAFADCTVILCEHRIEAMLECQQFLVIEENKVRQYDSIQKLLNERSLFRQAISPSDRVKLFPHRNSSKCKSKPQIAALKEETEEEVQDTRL

With `CC1(C)C[C@@H]2CCCNc3cccc(n3)S(=O)(=O)NC(=O)c3ccc(-n4ccc(O)n4)nc3N1C2` [Compound 256, (14S)-8-(3-hydroxy-1H-pyrazol-1-yl)-12,12-dimethyl-2λ^6-thia-3,9,11,18,23-pentaazatetracyclo[17.3.1.111,14.05,10]tetracosa-1(22),5,7,9,19(23),20-hexaene-2,2,4-trione], the ring closure, yield after HPLC in data set [1] (from CC(C)(C)OC(=O)N1C[C@@H](CCCNc2cccc(S(=O)(=O)NC(=O)c3ccc(-n4ccc(OCC5C(C)(C)C5(C)C)n4)nc3Cl)n2)CC1(C)C, 15-membered ring, TFA/DCM, then K2CO3/CsF/3A MS, 23.1 mM, 150.0 °C, 2 steps) came to 17%. Moreover, in data set [2], the EC50 is over 3 µM and the “Max. Activity” value is reported as “++ (++ is 30-60%)”.

With `CC1(C)CC2CCNc3cccc(n3)S(=O)(=O)NC(=O)c3ccc(-n4ccc(OCC5(C(F)(F)F)CC5)n4)nc3N1C2` (stereo not drawn) [Compound 4, 7,7-dimethyl-11-(3-{[1-(trifluoromethyl)cyclopropyl]methoxy}-1H-pyrazol-1-yl)-17λ^6-thia-2,8,10,16,22-pentaazatetracyclo[16.3.1.1(5,8).0(9,14)]tricosa-1(21),9(14),10,12,18(22),19-hexaene-15,17,17-trione], in data set [1] (from CC1(C)CC(CCNc2cccc(S(=O)(=O)NC(=O)c3ccc(-n4ccc(OCC5(C(F)(F)F)CC5)n4)nc3Cl)n2)CN1, 14-membered ring, K2CO3, 210.5 mM, 125.0 °C, 112.0 h, 2 steps), the ring closure, yield after HPLC turned out to be 9%. In data set [2], the EC50 is under 1 µM and the “Max. Activity” value is reported as “+++ (+++ is >60%)”.

With `CC1(C)C[C@@H]2CCCNc3cccc(n3)S(=O)(=O)NC(=O)c3ccc(-n4ccc(OCCC(C)(C)C(F)(F)F)n4)nc3N1C2` [Compound 212, (14S)-12,12-Dimethyl-8-[3-(4,4,4-trifluoro-3,3-dimethylbutoxy)-1H-pyrazol-1-yl]-2λ^6-thia-3,9,11,18,23-pentaazatetracyclo[17.3.1.111,14.05,10]tetracosa-1(22),5,7,9,19(23),20-hexaene-2,2,4-trione], the ring closure, yield after HPLC in data set [1] (from CC(C)(C)OC(=O)N1C[C@@H](CCCNc2cccc(S(=O)(=O)NC(=O)c3ccc(-n4ccc(OCCC(C)(C)C(F)(F)F)n4)nc3Cl)n2)CC1(C)C, 15-membered ring, K2CO3/CsF/3A MS, 21.2 mM, 130.0 °C, 2 steps) stood at 51%. In data set [2], the half-maximal effective concentration (EC50) is under 1 µM and the “Max. Activity” value was “+++ (+++ is >60%)”.

Compound `CC(C)C(COc1ccn(-c2ccc3c(n2)N2C[C@@H](CCCNc4cccc(n4)S(=O)(=O)NC3=O)CC2(C)C)n1)C(C)C` [Compound 227, (14S)-12,12-Dimethyl-8-{3-[3-methyl-2-(propan-2-yl)butoxy]-1H-pyrazol-1-yl}-2λ^6-thia-3,9,11,18,23-pentaazatetracyclo[17.3.1.111,14.05,10]tetracosa-1(23),5(10),6,8,19,21-hexaene-2,2,4-trione] registered a ring closure, yield after HPLC in data set [1] (from CC(C)C(COc1ccn(-c2ccc(C(=O)NS(=O)(=O)c3cccc(NCCC[C@@H]4CNC(C)(C)C4)n3)c(Cl)n2)n1)C(C)C, 15-membered ring, K2CO3/CsF/4A MS, 73.3 mM, 150.0 °C) of 20%. For the same compound, in data set [2], the EC50 is under 1 µM and the “Max. Activity” value is listed as “+++ (+++ is >60%)”.

Turning to `CC1(C)CC2CCCn3ccc(n3)S(=O)(=O)NC(=O)c3ccc(-n4ccc(OCCC(C5CC5)C5CC5)n4)nc3N1C2` (stereo not drawn) [Compound 141, 4-[3-(3,3-Dicyclopropylpropoxy)-1H-pyrazol-1-yl]-20,20-dimethyl-10λ^6-thia-1,3,9,14,22-pentaazatetracyclo[16.2.1.111,14.02,7]docosa-2,4,6,11(22),12-pentaene-8,10,10-trione], the ring closure, yield after HPLC in data set [1] (from CC(C)(C)OC(=O)N1CC(CCCn2ccc(S(=O)(=O)NC(=O)c3ccc(-n4ccc(OCCC(C5CC5)C5CC5)n4)nc3Cl)n2)CC1(C)C, 14-membered ring, K2CO3/CsF/3A MS, 66.2 mM, 150.0 °C, 2 steps) is 23% and 22%. Besides, in data set [2], the EC50 was under 1 µM and the “Max. Activity” value is listed as “+++ (+++ is >60%)”.

With `CC1(C)CCC2CCCCNc3cccc(n3)S(=O)(=O)NC(=O)c3ccc(-n4ccc(OCCC5(C(F)(F)F)CC5)n4)nc3N21` (stereo not drawn) [Compound 37, 12,12-dimethyl-8-(3-{2-[1-(trifluoromethyl)cyclopropyl]ethoxy}-1H-pyrazol-1-yl)-2λ^6-thia-3,9,11,20,25-pentaazatetracyclo[19.3.1.05,10.011,15]pentacosa-1(24),5,7,9,21(25),22-hexaene-2,2,4-trione], in data set [1] (from CC1(C)CCC(CCCCNc2cccc(S(=O)(=O)NC(=O)c3ccc(-n4ccc(OCCC5(C(F)(F)F)CC5)n4)nc3Cl)n2)N1, 15-membered ring, K2CO3/CsF, 85.3 mM, 150.0 °C), the ring closure, yield after HPLC was determined as 25%. In data set [2], the EC50 was under 1 µM and the “Max. Activity” value is listed as “+ (+ is <30%)”.

For the compound `CC1(C)CCC2CCCOc3cccc(n3)S(=O)(=O)NC(=O)c3ccc(-n4ccc(OCCC5(C(F)(F)F)CC5)n4)nc3N21` (stereo not drawn) [Compound 147, 12,12-dimethyl-8-(3-{2-[1-(trifluoromethyl)cyclopropyl]ethoxy}-1H-pyrazol-1-yl)-19-oxa-2λ^6-thia-3,9,11,24-tetraazatetracyclo[18.3.1.05,10.011,15]tetracosa-1(24),5(10),6,8,20,22-hexaene-2,2,4-trione], in data set [1] (from CC(C)(C)OC(=O)N1C(CCCOc2cccc(S(=O)(=O)NC(=O)c3ccc(-n4ccc(OCCC5(C(F)(F)F)CC5)n4)nc3Cl)n2)CCC1(C)C, 14-membered ring, K2CO3/CsF/3A MS, 66.1 mM, 140.0 °C, 2 steps), the ring closure, yield after HPLC was 5%. In data set [2], the EC50 is under 1 µM and the “Max. Activity” value is on record as “++ (++ is 30-60%)”.

Take `CC1(C)CC2CCCNc3cccc(n3)S(=O)(=O)NC(=O)c3ccc(-n4ccc(OCCC(C5CC5)C5CC5)n4)nc3N1C2` (stereo not drawn) [Compound 43, 8-[3-(3,3-dicyclopropylpropoxy)-1H-pyrazol-1-yl]-12,12-dimethyl-2λ^6-thia-3,9,11,18,23-pentaazatetracyclo[17.3.1.111,14.05,10]tetracosa-1(22),5,7,9,19(23),20-hexaene-2,2,4-trione]: in data set [1] (from CC1(C)CC(CCCNc2cccc(S(=O)(=O)NC(=O)c3ccc(-n4ccc(OCCC(C5CC5)C5CC5)n4)nc3Cl)n2)CN1, 15-membered ring, K2CO3/CsF/3A MS, 26.4 mM, 130.0 °C, 2 steps), the ring closure, yield after HPLC came to 55%. Besides, in data set [2], the EC50 is under 1 µM and the “Max. Activity” value was “+++ (+++ is >60%)”.

In the case of `CC1(C)C[C@@H]2CCCNc3cccc(n3)S(=O)(=O)NC(=O)c3ccc(-n4ccc(OCCC(C5CCC5)C5CCC5)n4)nc3N1C2` [Compound 231, (14S)-8-[3-(3,3-dicyclobutylpropoxy)-1H-pyrazol-1-yl]-12,12-dimethyl-2λ^6-thia-3,9,11,18,23-pentaazatetracyclo[17.3.1.111,14.05,10]tetracosa-1(22),5,7,9,19(23),20-hexaene-2,2,4-trione], in data set [1] (from CC1(C)C[C@H](CCCNc2cccc(S(=O)(=O)NC(=O)c3ccc(-n4ccc(OCCC(C5CCC5)C5CCC5)n4)nc3Cl)n2)CN1, 15-membered ring, K2CO3/CsF/3A MS, 21.1 mM, 165.0 °C, 16.0 h), the ring closure, yield after HPLC is 32%. Besides, in data set [2], the EC50 is under 1 µM and the “Max. Activity” value was “+++ (+++ is >60%)”.

`CC1(C)CC2CCCNc3cccc(n3)S(=O)(=O)NC(=O)c3ccc(-n4ccc(O)n4)nc3N1C2` (stereo not drawn) [Compound 38, 8-(3-hydroxy-1H-pyrazol-1-yl)-12,12-dimethyl-2λ^6-thia-3,9,11,18,23-pentaazatetracyclo[17.3.1.111,14.05,10]tetracosa-1(22),5,7,9,19(23),20-hexaene-2,2,4-trione] yielded a ring closure, yield after HPLC in data set [1] (from CC1(C)CC(CCCNc2cccc(S(=O)(=O)NC(=O)c3ccc(-n4ccc(O)n4)nc3Cl)n2)CN1, 15-membered ring, CsF/K2CO3/3A MS, 39.3 mM, 140.0 °C) of 17%. In data set [2], the EC50 was over 3 µM and the “Max. Activity” value is “++ (++ is 30-60%)”.

For the compound `CC1(C)C[C@@H]2CCCNc3cccc(n3)S(=O)(=O)NC(=O)c3ccc(-n4cccc(OCCC5(C(F)(F)F)CC5)c4=O)nc3N1C2` [Compound 268, (14S)-12,12-Dimethyl-8-(2-oxo-3-{2-[1-(trifluoromethyl)cyclopropyl]ethoxy}-1,2-dihydropyridin-1-yl)-2λ^6-thia-3,9,11,18,23-pentaazatetracyclo[17.3.1.111,14.05,10]tetracosa-1(23),5(10),6,8,19,21-hexaene-2,2,4-trione], the ring closure, yield after HPLC in data set [1] (from CC(C)(C)OC(=O)N1C[C@@H](CCCNc2cccc(S(=O)(=O)NC(=O)c3ccc(-n4cccc(OCCC5(C(F)(F)F)CC5)c4=O)nc3Cl)n2)CC1(C)C, 15-membered ring, K2CO3/CsF/3A MS, 12.0 mM, 150.0 °C, 2 steps) was 49%. Besides, in data set [2], the EC50 was over 3 µM and the “Max. Activity” value is listed as “++ (++ is 30-60%)”.

In the case of `CC1(C)CC2CN1c1nc(-n3ccc(OCCC4(C(F)(F)F)CC4)n3)ccc1C(=O)NS(=O)(=O)c1cccc(n1)NCCO2` (stereo not drawn) [Compound 69, 12,12-dimethyl-8-(3-{2-[1-(trifluoromethyl)cyclopropyl]ethoxy}-1H-pyrazol-1-yl)-15-oxa-2λ^6-thia-3,9,11,18,23-pentaazatetracyclo[17.3.1.111,14.05,10]tetracosa-1(22),5(10),6,8,19(23),20-hexaene-2,2,4-trione], in data set [1] (from CC(C)(C)OC(=O)N1CC(OCCNc2cccc(S(=O)(=O)NC(=O)c3ccc(-n4ccc(OCCC5(C(F)(F)F)CC5)n4)nc3Cl)n2)CC1(C)C, 15-membered ring, HCl (Boc off), K2CO3/CsF/3A MS, 62.3 mM, 150.0 °C, 2 steps), the ring closure, yield after HPLC came to 61%. Also, in data set [2], the EC50 was under 1 µM and the “Max. Activity” value is reported as “+++ (+++ is >60%)”.

As a reminder, the EC50 is the midpoint of the concentration-response curve.
